Results taken from patent publication EP4790048A1, “S1PR4 REGULATOR COMPOUND FOR AUTOIMMUNE DISEASE TREATMENT AND APPLICATION THEREOF” (Shengyuan Zetong (Shanghai) Pharmaceutical Co., Ltd, priority 2023, dated 2025).

These compounds were tested against T1, hS1P4 (Homo sapiens, UniProt O95977) (assay: Tango β-arrestin recruitment luciferase assay, Tango-hS1P4-CHO). Settings: β-arrestin recruitment; 20 h drug treatment; top 45 µM, 9 serial 5-fold dilutions; positive control 25 µM BAF-312; read-out: Tango-hS1P4-CHO EC50.
T1 construct: expressed in transfected cells; host or cells: CHO
T1 sequence (O95977 1-384): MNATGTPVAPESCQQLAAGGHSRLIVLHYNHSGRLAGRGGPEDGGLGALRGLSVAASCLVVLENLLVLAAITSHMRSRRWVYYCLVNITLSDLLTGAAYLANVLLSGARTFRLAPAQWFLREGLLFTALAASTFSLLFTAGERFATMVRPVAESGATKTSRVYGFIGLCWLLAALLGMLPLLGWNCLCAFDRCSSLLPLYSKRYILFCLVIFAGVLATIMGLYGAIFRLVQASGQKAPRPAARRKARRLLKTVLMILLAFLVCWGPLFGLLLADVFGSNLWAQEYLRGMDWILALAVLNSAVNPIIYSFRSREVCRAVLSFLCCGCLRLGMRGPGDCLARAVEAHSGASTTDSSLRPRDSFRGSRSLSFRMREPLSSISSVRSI
Format: cell-based
Excerpt: (§1) The Tango assay detects ligand-dependent GPCR activity through the interaction between β-arrestin and GPCRs. […] The NTEV fragment and the tetracycline transactivator (tTA), an artificial transcription factor, are fused at the C-terminus of the GPCR, while the CTEV fragment is fused to human β-arrestin 2. To enhance the stability of the interaction between GPCR and β-arrestin, a short sequence from the C-terminus of the human arginine vasopressin receptor 2 (V2 tail) is inserted between the GPCR and NTEV. The V2 tail contains multiple GRK phosphorylation sites, which strengthen β-arrestin binding upon phosphorylation. The CTEV fragment carries the stabile point mutation S219P and is truncated at residue 221 to remove the autoinhibitory C-terminal tail. Meanwhile, β-arrestin 2 is truncated to lack the entire C-terminal tail (residues 383-410 deleted). This truncation confers robust stimulus-dependent receptor desensitization, thereby improving detection sensitivity compared with wild-type β-arrestin 2. The UAS reporter construct consists of upstream activating sequence (UAS) elements, a minimal CMV promoter, and a tTA-dependent luciferase reporter gene. Therefore, constructing Tango cells requires the co-transfection of the above three plasmids into host cells. Upon GPCR activation and β-arrestin recruitment, the TEV enzyme at the β-arrestin terminus cleaves tTA from the GPCR C-terminus. The released tTA initiates tTA-dependent luciferase transcription, and compound activity is ultimately determined by measuring luminescence intensity.
(§2) • 1) Tango cell line from was digested from the culture dish respectively. After cell counting, the cells were plated at a density of 10,000 cells per well with […] into a white opaque 96-well plate (add 60 µL D'Hanks to the surrounding wells), and incubated overnight (20 h) in a 5% CO2 incubator at 37°C. The cell density will reach approximately 90% the next day. • 2) After 20 h, 30 µL of serially diluted compound solution was added to each well. The control group was supplemented with 30 µL F12K complete medium. Each group had three replicate wells. • 3) Samples were collected after 20 h of drug treatment.
(§3) (All compounds were tested at a final concentration of 45 µM, with 9 serial dilutions at 5-fold intervals. 1 µM BAF-312 was used as the positive control for S1PR1, and 25 µM BAF-312 was used as the positive control for S1PR4.

| Structure (SMILES) | EC50 [nM] |
| --- | --- |
| CCc1cc(/C(C)=N/OCc2ccc(C3=CCCC3)c(C)c2)ccc1CN1CC[C@H](C(=O)O)C1 [Compound 63] | 5.86 ± 0.27 |
| CCc1cc(/C(C)=N/OCc2cccc(C(F)(F)F)c2)ccc1CN1CC(C(=O)O)C1 [Compound 13] | 3240 |
| CCc1cc(/C(C)=N/OCc2ccc(OC(C)C)c(C#N)c2)ccc1CN1CC(C(=O)O)C1 [Compound 16, (E)-1-(4-(1-(((3-cyano-4-isopropoxybenzyl)oxy)imino)ethyl)-2-ethylbenzyl)azetidine-3-carboxylic acid] | 3320 |
| CCc1cc(/C(C)=N/OCc2ccc(-c3cnc(F)cn3)c(C)c2)ccc1CN1CCC(C(=O)O)CC1 [Compound 90, (E)-1-(2-ethyl-4-(1-(((3-methyl-4-(5-fluoropyrazin-2-yl)-benzyl)oxy)imino)ethyl)benzyl)piperidine-4-carboxylic acid] | > 10000 |
| CCc1cc(/C(C)=N/OCc2ccc(-c3ccccc3F)c(F)c2)ccc1CN1CC[C@H](C(=O)O)C1 [Compound 64] | 7.77 ± 1.02 |
| CCc1cc(/C(C)=N/OCc2ccc(-c3ccc(F)cc3F)c(C)c2)ccc1CN1CC[C@H](C(=O)O)C1 [Compound 47, (S, E)-1-(2-ethyl-4-(1-(((2',4'-difluoro-2-methyl-[1,1'-biphenyl]-4-yl)methoxy)imino)ethyl)benzyl)pyrrolidine-3-carboxylic acid] | 4.67 |
| COc1cc(/C(C)=N/OCc2ccc(C3CCCCC3)c(C(F)(F)F)c2)ccc1CN1CC(C(=O)O)C1 [Compound 27] | 1700 |
| CCc1cc(/C(C)=N/OCc2ccc(-c3ccc(F)nc3)c(F)c2)ccc1CN1CC[C@H](C(=O)O)C1 [Compound 69, (S, E)-1-(2-ethyl-4-(1-(((3-fluoro-4-(6-fluoropyridin-3-yl)benzyl)oxy)imino)ethyl)benzyl)pyrrolidine-3-carboxylic acid] | 8.28 ± 0.38 |
| CCc1cc(/C(C)=N/OCc2ccc(-c3cncnc3)c(C)c2)ccc1CN1CC(C(=O)O)C1 [Compound 81, (E)-1-(2-ethyl-4-(1-(((3-methyl-4-(pyrimidin-5-yl)benzyl)oxy)imino)ethyl)benzyl)azetidine-3-carboxylic acid] | 103 ± 9.1 |
| C/C(=N\OCc1ccc(C2CCCCC2)c(C(F)(F)F)c1)c1ccc(CN2CC(C(=O)O)C2)c(Br)c1 [Compound 12, (E)-1-(2-bromo-4-(1-((4-cyclohexyl-3-(trifluoromethyl)benzyl)oxy)imino)ethyl)azetidine-3-carboxylic acid] | 2250 |
| CCc1cc(/C(C)=N/OCc2ccc(-c3cnn(C)c3)cc2F)ccc1CN1CC[C@H](C(=O)O)C1 [Compound 58] | > 10000 |
| CCc1cc(/C(C)=N/OCc2ccc(-c3ccsc3)c(F)c2)ccc1CN1CC[C@H](C(=O)O)C1 [Compound 85, (S, E)-1-(2-ethyl-4-(1-(((3-fluoro-4-(thiophen-3-yl)benzyl)oxy)imino)ethyl)benzyl)pyrrolidine-3-carboxylic acid] | 8.52 ± 0.21 |
| CCc1cc(/C(C)=N/OCc2ccc(C3=CCCCC3)c(C)c2)ccc1CN1CC[C@H](C(=O)O)C1 [Compound 61] | 3.33 ± 2.5 |
| CCc1cc(/C(C)=N/OCc2ccc(-c3cnc(F)cn3)c(C)c2)ccc1CN1CC(C(=O)O)C1 [Compound 91, (E)-1-(2-ethyl-4-(1-(((3-methyl-4-(5-fluoropyrazin-2-yl)-benzyl)oxy)imino)ethyl)benzyl)azetidine-3-carboxylic acid] | > 10000 |
| CCc1cc(/C(C)=N/OCc2ccc(C3CCCC3)c(C)c2)ccc1CN1CC[C@H](C(=O)O)C1 [Compound 62, (S, E)-1-(2-ethyl-4-(1-(((4-cyclopentyl-3-methylbenzyl)oxy)imino)ethyl)benzyl)pyrrolidine-3-carboxylic acid] | 3.31 ± 0.24 |
| CCc1cc(/C(C)=N/OCc2ccc(C3CCCCC3)c(C)c2)ccc1CN1CC[C@H](C(=O)O)C1 [Compound 60, (S, E)-1-(2-ethyl-4-(1-(((4-cyclohexyl-3-methylbenzyl)oxy)imino)ethyl)benzyl)pyrrolidine-3-carboxylic acid] | 71.7 |
| C/C(=N\OCc1ccc(C2CCCCC2)c(C(F)(F)F)c1)c1ccc(CNCCCC(=O)O)cc1 [Compound 8, (E)-4-((4-((1-((4-cyclohexyl-3-(trifluoromethyl)benzyl)oxy)imino)ethyl)benzyl)amino)butanoic acid] | 2400 |
| CCc1cc(/C(C)=N/OCc2ccc(-c3ccsc3)cc2)ccc1CN1CC[C@H](C(=O)O)C1 [Compound 56] | 5.05 ± 1.84 |

Results, then the compound that gave them:

| EC50 [nM] | Structure (SMILES) |
| --- | --- |
| 2.91 ± 0.01 | CCc1cc(/C(C)=N/OCc2ccc(-c3ccsc3)c(C)c2)ccc1CN1CC[C@H](C(=O)O)C1 [Compound 41, (S, E)-1-(2-ethyl-4-(1-(((3-methyl-4-(thiophen-3-yl)benzyl)oxy)imino)ethyl)benzyl)pyrrolidine-3-carboxylic acid] |
| 7.02 ± 0.59 | CCc1cc(/C(C)=N/OCc2ccc(-c3ccc(F)nc3)c(C)c2)ccc1CN1CC[C@H](C(=O)O)C1 [Compound 53, (S, E)-1-(2-ethyl-4-(1-(((4-(6-fluoropyridin-3-yl)-3-methylbenzyl)oxy)imino)ethyl)benzyl)pyrrolidine-3-carboxylic acid] |
| 4.22 ± 1.19 | CCc1cc(/C(C)=N/OCc2ccc(-c3cnc(O)cn3)c(C)c2)ccc1CN1CC[C@H](C(=O)O)C1 [Compound 5, (S, E)-1-(2-ethyl-4-(1-(((3-methyl-4-(5-hydroxypyrazin-2-yl)-benzyl)oxy)imino)ethyl)benzyl)pyrrolidine-3-carboxylic acid] |
| 5.93 ± 4.12 | CCc1cc(/C(C)=N/OCc2ccc(-c3ncc(F)cn3)c(C)c2)ccc1CN1CC[C@H](C(=O)O)C1 [Compound 77, (S, E)-1-(2-ethyl-4-(1-(((4-(5-fluoropyrimidin-2-yl)-3-methylbenzyl)oxy)imino)ethyl)benzyl)pyrrolidine-3-carboxylic acid] |
| 1.51 ± 0.64 | CCc1cc(/C(C)=N/OCc2ccc(-c3cccs3)c(C)c2)ccc1CN1CC[C@H](C(=O)O)C1 [Compound 72, (S, E)-1-(2-ethyl-4-(1-(((3-methyl-4-(thiophen-2-yl)benzyl)oxy)imino)ethyl)benzyl)pyrrolidine-3-carboxylic acid] |
| 4.39 ± 0.91 | CCc1cc(/C(C)=N/OCc2ccc(-c3ccncn3)c(C)c2)ccc1CN1CC[C@H](C(=O)O)C1 [Compound 76, (S, E)-1-(2-ethyl-4-(1-(((3-methyl-4-(pyrimidin-4-yl)benzyl)oxy)imino)ethyl)benzyl)pyrrolidine-3-carboxylic acid] |

What follows are compounds tested against T2, hS1P1 (Homo sapiens, UniProt P21453) (assay: Tango β-arrestin recruitment luciferase assay, Tango-hS1P1-CHO). Settings: β-arrestin recruitment; 20 h drug treatment; top 45 µM, 9 serial 5-fold dilutions; positive control 1 µM BAF-312; read-out: Tango-hS1P1-CHO EC50.
T2 construct: expressed in transfected cells; host or cells: CHO
T2 sequence (P21453 whole entry): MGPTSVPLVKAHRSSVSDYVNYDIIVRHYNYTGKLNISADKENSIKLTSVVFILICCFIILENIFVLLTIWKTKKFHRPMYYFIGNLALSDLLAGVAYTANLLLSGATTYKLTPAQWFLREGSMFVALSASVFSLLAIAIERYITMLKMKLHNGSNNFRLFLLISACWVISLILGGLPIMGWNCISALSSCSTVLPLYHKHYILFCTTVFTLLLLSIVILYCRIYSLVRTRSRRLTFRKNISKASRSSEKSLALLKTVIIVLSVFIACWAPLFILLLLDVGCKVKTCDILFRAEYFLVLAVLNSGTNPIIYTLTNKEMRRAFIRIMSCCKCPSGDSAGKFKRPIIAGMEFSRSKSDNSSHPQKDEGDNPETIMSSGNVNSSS
Format: cell-based
Excerpt: as §1, §2, §3

| Structure (SMILES) | EC50 [nM] |
| --- | --- |
| CCc1cc(/C(C)=N/OCc2ccc(-c3cncnc3)c(F)c2)ccc1CN1CC[C@H](C(=O)O)C1 [Compound 71, (S, E)-1-(2-ethyl-4-(1-(((3-fluoro-4-(pyrimidin-5-yl)benzyl)oxy)imino)ethyl)benzyl)pyrrolidine-3-carboxylic acid] | > 10000 |
| CCc1cc(/C(C)=N/OCc2ccc(-c3cnsc3)cc2)ccc1CN1CC[C@H](C(=O)O)C1 [Compound 74] | > 10000 |
| CCc1cc(/C(C)=N/OCc2ccc(-c3c(C)noc3C)c(C)c2)ccc1CN1CC[C@H](C(=O)O)C1 [Compound 45] | > 10000 |

Next, values leading:

| EC50 [nM] | Structure (SMILES) |
| --- | --- |
| > 10000 | CCc1cc(/C(C)=N/OCc2ccc(-c3cncnc3C)c(C)c2)ccc1CN1CC[C@H](C(=O)O)C1 [Compound 83, (S, E)-1-(2-ethyl-4-(1-(((3-methyl-4-(4-methylpyrimidin-5-yl)benzyl)oxy)imino)ethyl)benzyl)pyrrolidine-3-carboxylic acid] |
| > 10000 | CCc1cc(/C(C)=N/OCc2ccc(-c3cncn3C)c(C)c2)ccc1CN1CC[C@H](C(=O)O)C1 [Compound 44] |
| > 10000 | CCc1cc(/C(C)=N/OCc2ccc(-c3ccnnc3)c(C)c2)ccc1CN1CC[C@H](C(=O)O)C1 [Compound 84, (S, E)-1-(2-ethyl-4-(1-(((3-methyl-4-(pyridazin-4-yl)benzyl)oxy)imino)ethyl)benzyl)pyrrolidine-3-carboxylic acid] |
| > 10000 | CCc1cc(/C(C)=N/OCc2ccc(-c3cnn(C(C)(C)C)c3)c(C)c2)ccc1CN1CC[C@H](C(=O)O)C1 [Compound 39] |
